Experimental findings from patent US8791102B2, “Acetanilide sphingosine-1-phosphate receptor antagonists” (Exelixis, Inc., priority 2008, dated 2014) are described below.

pIC50: −log10 of the molar value.

The target of the test is T1, human S1P1 receptors (Homo sapiens, UniProt P21453).
T1 construct: host or cells: HEK293
T1 sequence (P21453 whole entry): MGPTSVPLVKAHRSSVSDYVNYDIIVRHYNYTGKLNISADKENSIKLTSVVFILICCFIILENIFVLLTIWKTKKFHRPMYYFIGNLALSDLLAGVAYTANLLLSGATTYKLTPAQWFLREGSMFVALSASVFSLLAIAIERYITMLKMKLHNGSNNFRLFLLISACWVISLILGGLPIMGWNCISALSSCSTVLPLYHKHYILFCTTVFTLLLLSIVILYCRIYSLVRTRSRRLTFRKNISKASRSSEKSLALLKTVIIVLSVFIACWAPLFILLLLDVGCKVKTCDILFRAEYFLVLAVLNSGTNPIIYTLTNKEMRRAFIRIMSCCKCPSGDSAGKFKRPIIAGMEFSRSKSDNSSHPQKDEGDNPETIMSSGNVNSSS
Description: S1P1R antagonist assay (fluorescent membrane potential dye, cAMP readout). The class given is cell-based. To be noted: HEK293 cells expressing human S1P1 receptors and CNG channel; 500 nM NECA; S1P1R agonist 10 nM; 90 minutes; read-out: EC50 or IC50 value.
Broadly, the pIC50 is −log10 of the IC50, conventionally taken in molar units. In the case of `O=C(Cc1cnc[nH]1)N[C@@H](CCCc1ccccc1)C(=O)Nc1ccc(Oc2ccccc2)cc1` [Compound 1, (S)-2-(2-(1H-imidazol-5-yl)acetamido)-5-phenyl-N-(4-phenoxyphenyl)pentanamide], the negative logarithm of the IC50 (pIC50) is no less than 6.52.

Turning to `Cc1ccc(C[C@@H]2C[C@@H](C(=O)Nc3ccc(Oc4ccc(F)cc4)cc3)N(C(=O)Cn3ccnn3)C2)cc1` [Compound 3], the pIC50 is no less than 6.52.

As for `CC(O)CC(=O)N1C[C@H](Cc2ccccc2)C[C@H]1C(=O)Nc1ccc(Oc2ccc(F)cc2)cc1` (stereo partly drawn) [Compound 118, (2S,4R)-4-benzyl-N-(4-(4-fluorophenoxy)phenyl)-1-(3-hydroxybutanoyl)pyrrolidine-2-carboxamide], the pIC50 was no less than 6.52.

As to `O=C(Cc1c[nH]cn1)N[C@@H](COCc1ccc(F)cc1)C(=O)Nc1ccc(Oc2ccc(Br)cc2)cc1` [Compound 168, (S)-2-(2-(1H-imidazol-5-yl)acetamido)-N-(4-(4-bromophenoxy)phenyl)-3-(4-fluorobenzyloxy)propanamide], the pIC50 was no less than 6.52.

Take `O=C(NC(COCc1ccccc1)C(=O)Nc1ccc(Oc2ccccc2)cc1)c1cc(F)ccc1Br` (stereo not drawn) [Compound 21, N-(3-(benzyloxy)-1-oxo-1-(4-phenoxyphenylamino)propan-2-yl)-2-bromo-5-fluorobenzamide]: the pIC50 was less than 6.00.

With `COCCC(=O)NC(COCc1ccccc1)C(=O)Nc1ccc(Oc2ccccc2)cc1` (stereo not drawn) [Compound 337, N-(2-oxo-1-{[(phenylmethyl)oxy]methyl}-2-{[4-(phenyloxy)phenyl]amino}ethyl)-3-methoxypropanamide], the pIC50 is less than 6.00.

Consider `COc1ccccc1N1CCN(CC(=O)N[C@@H](COCc2ccccc2)C(=O)Nc2ccc(Oc3ccc(F)cc3)cc2)CC1` [Compound 217, (S)-3-(benzyloxy)-N-(4-(4-fluorophenoxy)phenyl)-2-(2-(4-(2-methoxyphenyl)piperazin-1-yl)acetamido)propanamide], for which the pIC50 is 6.00 to 6.52.

In the case of `O=C(Cc1cncnc1)N[C@@H](COCc1ccccc1)C(=O)Nc1ccc(Oc2ccc(F)cc2)cc1` [Compound 250, (S)-3-(benzyloxy)-N-(4-(4-fluorophenoxy)phenyl)-2-(2-(pyrimidin-5-yl)acetamido)propanamide], the pIC50 was no less than 6.52.

`O=C(Cc1cccs1)N[C@@H](COCc1ccccc1)C(=O)Nc1ccc(Oc2ccccc2)cc1` [Compound 198, (S)-2-(2-(thien-2-yl)acetamido)-3-benzyloxy-N-(4-phenoxyphenyl)propanamide]: the pIC50 is 6.00 to 6.52.

As to `Cc1nccn1CC(=O)N[C@@H](COCc1ccccc1)C(=O)Nc1ccc(Oc2ccc(F)cc2)cc1` [Compound 160, (S)-3-(benzyloxy)-N-(4-(4-fluorophenoxy)phenyl)-2-(2-(2-methyl-1H-imidazol-1-yl)acetamido)propanamide], the negative logarithm of the IC50 (pIC50) is no less than 6.52.

`O=C(Cn1nccn1)N[C@@H](COCc1ccccc1)C(=O)Nc1ccc(Oc2ccc(F)cc2)cc1` [Compound 138, (S)-2-(2-(2H-1,2,3-triazol-2-yl)acetamido)-3-(benzyloxy)-N-(4-(4-fluorophenoxy)phenyl)propanamide]: the negative-log IC50 (pIC50) is no less than 6.52.

`O=C(CCc1cccnc1)NC(COCc1ccccc1)C(=O)Nc1ccc(Oc2ccccc2)cc1` (stereo not drawn) [Compound 369, N-(2-oxo-1-{[(phenylmethyl)oxy]methyl}-2-{[4-(phenyloxy)phenyl]amino}ethyl)-3-(pyridin-3-yl)propanamide]: the pIC50 was less than 6.00.

Take `O=C(Nc1ccc(Oc2ccc(F)cc2)cc1)[C@@H]1C[C@@H](c2ccccc2)CN1C(=O)Cn1cncn1` [Compound 78, (2S,4S)-1-(2-(1H-1,2,4-triazol-1-yl)acetyl)-N-(4-(4-fluorophenoxy)phenyl)-4-phenylpyrrolidine-2-carboxamide]: the pIC50 was 6.00 to 6.52.

Take `O=C(NC(COCc1ccccc1)C(=O)Nc1ccc(Oc2ccccc2)cc1)c1sc2ccccc2c1Cl` (stereo not drawn) [Compound 297, 3-chloro-N-(2-oxo-1-{[(phenylmethyl)oxy]methyl}-2-{[4-(phenyloxy)phenyl]amino}ethyl)-1-benzothiophene-2-carboxamide]: the pIC50 was less than 6.00.

As to `O=C(Nc1ccc(Oc2ccc(F)cc2)cc1)[C@@H]1C[C@@H](Cc2c(F)cc(F)cc2F)CN1C(=O)Cn1ccnn1` [Compound 170, (2S,4R)-1-(2-(1H-1,2,3-triazol-1-yl)acetyl)-N-(4-(4-fluorophenoxy)phenyl)-4-(2,4,6-trifluorobenzyl)pyrrolidine-2-carboxamide], the pIC50 is no less than 6.52.

On to `O=C(Nc1ccc(Oc2ccc(F)cc2)cc1)[C@@H]1C[C@@H](Cc2ccc(Cl)s2)CN1C(=O)Cn1ccnn1` [Compound 65, (2S,4S)-1-(2-(1H-1,2,3-triazol-1-yl)acetyl)-4-((5-chlorothien-2-yl)methyl)-N-(4-(4-fluorophenoxy)phenyl)pyrrolidine-2-carboxamide], for which the pIC50 is no less than 6.52.

In the case of `CC(=O)NCCC[C@H](NC(=O)Cn1cncn1)C(=O)Nc1ccc(Oc2ccc(F)cc2)cc1` [Compound 254, (S)-2-(2-(1H-1,2,4-triazol-1-yl)acetamido)-5-acetamido-N-(4-(4-fluorophenoxy)phenyl)pentanamide], the pIC50 was no less than 6.52.

In the case of `O=C(Cc1cccc(Cl)c1F)NC(COCc1ccccc1)C(=O)Nc1ccc(Oc2ccccc2)cc1` (stereo not drawn) [Compound 191, 3-(benzyloxy)-2-(2-(3-chloro-2-fluorophenyl)acetamido)-N-(4-phenoxyphenyl)propanamide], the pIC50 is 6.00 to 6.52.

Turning to `O=C(Nc1ccc(Oc2ccc(F)cc2)cc1)[C@@H]1C[C@@H](Cc2ccccc2)CN1C(=O)CSc1ccncc1` [Compound 96, (2S,4R)-4-benzyl-N-(4-(4-fluorophenoxy)phenyl)-1-(2-(pyridin-4-ylthio)acetyl)pyrrolidine-2-carboxamide], the pIC50 is no less than 6.52.

In the case of `O=C(CN1CCN(C(=O)C2CCCO2)CC1)N[C@@H](COCc1ccccc1)C(=O)Nc1ccc(Oc2ccc(F)cc2)cc1` (stereo partly drawn) [Compound 237, (2S)-3-(benzyloxy)-N-(4-(4-fluorophenoxy)phenyl)-2-(2-(4-(tetrahydrofuran-2-carbonyl)piperazin-1-yl)acetamido)propanamide], the pIC50 is 6.00 to 6.52.

Turning to `O=C(Cn1cnnn1)N[C@@H](COCc1ccccc1)C(=O)Nc1ccc(Oc2ccccc2)cc1` [Compound 144, (S)-2-(2-(1H-tetrazol-1-yl)acetamido)-3-benzyloxy-N-(4-phenoxyphenyl)propanamide], the negative-log IC50 (pIC50) is no less than 6.52.

In the case of `O=C(Nc1ccc(Oc2ccc(F)cc2)cc1)[C@@H]1C[C@@H](Cc2cccc(Cl)c2)CN1C(=O)Cn1ccnn1` [Compound 263, (2S,4R)-1-(2-(1H-1,2,3-triazol-1-yl)acetyl)-4-(3-chlorobenzyl)-N-(4-(4-fluorophenoxy)phenyl)pyrrolidine-2-carboxamide], the pIC50 was no less than 6.52.

On to `O=C(CN1CCN(C(=O)c2ccco2)CC1)N[C@@H](COCc1ccccc1)C(=O)Nc1ccc(Oc2ccc(F)cc2)cc1` [Compound 223, (S)-3-(benzyloxy)-N-(4-(4-fluorophenoxy)phenyl)-2-(2-(4-(furan-2-carbonyl)piperazin-1-yl)acetamido)propanamide], for which the pIC50 is 6.00 to 6.52.

On to `O=C(Cn1cncn1)N[C@@H](COCc1ccccc1OC(F)(F)F)C(=O)Nc1ccc(Oc2ccc(F)cc2)cc1` [Compound 139, (S)-2-(2-(1H-1,2,4-triazol-1-yl)acetamido)-N-(4-(4-fluorophenoxy)phenyl)-3-(2-(trifluoromethoxy)benzyloxy)propanamide], for which the pIC50 is no less than 6.52.
